Measurements as given in the supplement of paper PMC10307832.

Legend:
Assay in all cases: relative viability (nuclei count vs DMSO), 5 days (fraction); higher = more cells survive
BMX-IN-1 + Lapatinib = compound: C=CC(=O)Nc1cc(-n2c(=O)ccc3cnc4ccc(-c5ccc(NS(C)(=O)=O)cc5)cc4c32)ccc1C [BMX-IN-1] + CS(=O)(=O)CCNCc1ccc(-c2ccc3ncnc(Nc4ccc(OCc5cccc(F)c5)c(Cl)c4)c3c2)o1 [Lapatinib] (partner 2 µM)
Procedure, shortened: (§1)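 Nuclei were stained with Hoechst during a one-step fixation (final 0.05% Triton X-100, 1% formaldehyde, 1 ug/ml Hoechst) carried out 5 days after dosing, then counted on 4× images. The cells, lung cancer lines in 1536-well plates, had been dosed by pin tool the day after seeding with one drug alone or a fixed anchor-drug dose plus five library-drug doses (not always all listed) in √10 steps. Relative viability is the nuclei count in treated wells divided by that in vehicle wells, and each value is the median of duplicate plates.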

Ibrutinib + Pictilisib = compound: C=CC(=O)N1CCC[C@@H](n2nc(-c3ccc(Oc4ccccc4)cc3)c3c(N)ncnc32)C1 [Ibrutinib] + CS(=O)(=O)N1CCN(Cc2cc3nc(-c4cccc5[nH]ncc45)nc(N4CCOCC4)c3s2)CC1 [Pictilisib] (partner 1 µM)
Procedure, shortened: as §1

Ibrutinib + Crizotinib = compound: C=CC(=O)N1CCC[C@@H](n2nc(-c3ccc(Oc4ccccc4)cc3)c3c(N)ncnc32)C1 [Ibrutinib] + C[C@@H](Oc1cc(-c2cnn(C3CCNCC3)c2)cnc1N)c1c(Cl)ccc(F)c1Cl [Crizotinib] (partner 1 µM)
Procedure, shortened: as §1

BMX-IN-1 + Olaparib = compound: C=CC(=O)Nc1cc(-n2c(=O)ccc3cnc4ccc(-c5ccc(NS(C)(=O)=O)cc5)cc4c32)ccc1C [BMX-IN-1] + O=C(c1cc(Cc2n[nH]c(=O)c3ccccc23)ccc1F)N1CCN(C(=O)C2CC2)CC1 [Olaparib] (partner 8 µM)
Procedure, shortened: as §1

Row | Cell Line | relative viability (BMX-IN-1 + Lapatinib; first compound 0.02 µM) | relative viability (BMX-IN-1 + Lapatinib; first compound 0.2 µM) | relative viability (BMX-IN-1 + Lapatinib; first compound 0.6325 µM) | relative viability (BMX-IN-1 + Lapatinib; first compound 2 µM) | relative viability (Ibrutinib + Pictilisib; first compound 0.005 µM) | relative viability (Ibrutinib + Pictilisib; first compound 0.01581 µM) | relative viability (Ibrutinib + Pictilisib; first compound 0.05 µM) | relative viability (Ibrutinib + Pictilisib; first compound 0.1581 µM) | relative viability (Ibrutinib + Pictilisib; first compound 0.5 µM) | relative viability (Ibrutinib + Crizotinib; first compound 0.005 µM) | relative viability (Ibrutinib + Crizotinib; first compound 0.01581 µM) | relative viability (Ibrutinib + Crizotinib; first compound 0.05 µM) | relative viability (Ibrutinib + Crizotinib; first compound 0.1581 µM) | relative viability (Ibrutinib + Crizotinib; first compound 0.5 µM) | relative viability (BMX-IN-1 + Olaparib; first compound 0.02 µM) | relative viability (BMX-IN-1 + Olaparib; first compound 0.2 µM) | relative viability (BMX-IN-1 + Olaparib; first compound 0.6325 µM) | relative viability (BMX-IN-1 + Olaparib; first compound 2 µM)
1 | NCI-H1734 | 1.21 | 1.66 | 1.1 | 1.05 | 0.354 | 0.446 | 0.43 | 0.491 | 0.388 | 0.587 | 0.689 | 0.675 | 0.761 | 0.67 | 0.645 | 0.683 | 0.689 | 0.604
2 | NCI-H1651 | 1 | 0.967 | 1.17 | 0.834 | 0.502 | 0.482 | 0.466 | 0.627 | 0.643 | 0.952 | 0.871 | 0.819 | 0.818 | 0.88 | 0.175 | 0.182 | 0.18 | 0.183
3 | NCI-H2170 | 0.281 | 0.28 | 0.272 | 0.271 | 0.234 | 0.312 | 0.243 | 0.261 | 0.169 | 1.07 | 0.824 | 0.452 | 1.19 | 0.227 | 0.587 | 0.677 | 0.717 | 0.624
4 | NCI-H1650 | 0.666 | 0.941 | 0.88 | 0.77 | 0.493 | 0.52 | 0.506 | 0.515 | 0.476 | 0.845 | 0.919 | 0.934 | 1.09 | 0.744 | 0.977 | 0.914 | 0.762 | 0.77
5 | LK-2 | 1.1 | 1.37 | 0.68 | 0.924 | – | 0.472 | 0.532 | 0.494 | 0.488 | – | 0.355 | 0.216 | 0.275 | 0.252 | 0.799 | 0.69 | 0.775 | 0.902
6 | NCI-H2009 | 0.661 | 1.04 | 1.1 | 0.893 | 0.593 | 0.846 | 0.742 | 0.468 | 0.759 | 1.04 | 1.04 | 1.08 | 1.11 | 1.1 | 0.838 | 0.646 | 0.654 | 0.66
7 | NCI-H2347 | 1.01 | 1.06 | 0.991 | 0.944 | 0.648 | 0.672 | 0.587 | 0.299 | 0.535 | 0.679 | 0.684 | 0.739 | 0.592 | 0.696 | 0.523 | 0.603 | 0.597 | 0.573
8 | NCI-H460 | – | 1.36 | 1.75 | 1.1 | 0.331 | 0.365 | 0.313 | 0.19 | 0.256 | 1.11 | 0.614 | 1.04 | – | 1.12 | 0.481 | 0.475 | 0.445 | 0.439
9 | LC-2-ad | 1.12 | 1.12 | 1.09 | 1.05 | 0.335 | 0.19 | 0.53 | 0.525 | 0.299 | – | 0.449 | 0.546 | 0.476 | 0.419 | 0.829 | 0.848 | 0.674 | 0.733
